The values that follow come from patent US20240409519A1, “HYDROGENATED QUINOXALINES” (OTSUKA PHARMACEUTICAL CO., LTD., priority 2021, published 2024).

For one data set, the target named is T1, serotonin (5-HT) uptake (Rattus norvegicus, UniProt P31652).
T1 construct: used as crude synaptosomal fraction; from tissue; host or cells: rat frontal cortex, crude synaptosomal fraction
The data set is described as follows: Serotonin (5-HT) uptake inhibitory activity in rat brain synaptosome. To be noted: rat frontal cortex synaptosome, tritium-labeled 5-HT 8 nM; read-out: IC50 (nM), serotonin (5-HT) uptake inhibition. It is filed as biochemical. As for the experimental part: Male Wistar rats were decapitated, each brain was removed, and the frontal cortex was cut out. […] The homogenate was centrifuged at 1000 g at 4° C. for 10 minutes, and the supernatant was further centrifuged at 20000 g at 4° C. for 20 minutes. The pellet was suspended in an incubation buffer (20 mM Hepes buffer (pH 7.4) containing 10 mM glucose, 145 mM sodium chloride, 4.5 mM potassium chloride, 1.2 mM magnesium chloride and 1.5 mM calcium chloride) and used as crude synaptosomal fraction.
(§1) Each well of a 96-well round-bottom plate was used for the uptake reaction in a total volume of 200 μL solution containing purgurin (final concentration 10 μM) and ascorbic acid (final concentration 0.2 mg/mL). In other words, solvent, unlabeled 5-HT or step-diluted test compound was added to each well, and one-tenth of the final volume of the synaptosomal fraction was added to each well, followed by pre-incubation at 37° C. for 10 minutes, and then tritium-labeled 5-HT solution (final concentration 8 nM) was added and the uptake reaction was initiated at 37° C. After 10 minutes, the uptake reaction was terminated by suction filtration onto a 96-well glass fiber filter plate. The filters were rinsed with cold physi-ological saline solution, dried thoroughly, and micro scintillation 0 (Perkin-Elmer) was added thereto. Then, the residual radioactivity on the filters was measured.
The uptake value when only solvent was added was set as 100%, the uptake value when unlabeled 5-HT (final concentration 10 μM) was added as 0% (nonspecific uptake value), and the 50% inhibitory concentration was calculated from the concentration of the test compound and its inhibitory activity.

Another data set deals with T2, dopamine (DA) uptake (Rattus norvegicus, UniProt P23977).
T2 construct: used as crude synaptosomal fraction; from tissue; host or cells: rat striatum, crude synaptosomal fraction
Kind of data set: Dopamine (DA) uptake inhibitory activity using rat brain synaptosome. It is filed as biochemical. The following applies: rat striatum synaptosome, tritium-labeled DA 2 nM; read-out: IC50 (nM), dopamine (DA) uptake inhibition. How it is done:
Male Wistar rats were decapitated, each brain was removed, and the striatum was cut out. […] The homogenate was centrifuged at 1000 g at 4° C. for 10 minutes, and the supernatant was further centrifuged at 20000 g at 4° C. for 20 minutes. The pellet was suspended in an incubation buffer (20 mM Hepes buffer (pH 7.4) containing 10 mM glucose, 145 mM sodium chloride, 4.5 mM potassium chloride, 1.2 mM magnesium chloride and 1.5 mM calcium chloride) and used as crude synaptosomal fraction.
as §1, with “μl” for “μL”, “DA” for “5-HT”, “2” for “8”
The uptake value when only solvent was added was set as 100%, the uptake value when unlabeled DA (final concentration 10 μM) was added as 0% (nonspecific uptake value), and the 50% inhibitory concentration was calculated from the concentration of the test compound and its inhibitory activity.

The target in data set [1] is T3, norepinephrine (NE) uptake (Rattus norvegicus, UniProt Q63380).
T3 construct: used as crude synaptosomal fraction; from tissue; host or cells: rat hippocampus, crude synaptosomal fraction
Kind of data set: Norepinephrine (NE) uptake inhibitory activity using rat brain synaptosome. The format is biochemical. To be noted: rat hippocampus synaptosome, tritium-labeled NE 12 nM; read-out: IC50 (nM), norepinephrine (NE) uptake inhibition. As for the experimental part:
Male Wistar rats were decapitated, each brain was removed, and the hippocampus was cut out. […] The homogenate was centrifuged at 1000 g at 4° C. for 10 minutes, and the supernatant was further centrifuged at 20000 g at 4° C. for 20 minutes. The pellet was suspended in an incubation buffer (20 mM Hepes buffer (pH 7.4) containing 10 mM glucose, 145 mM sodium chloride, 4.5 mM potassium chloride, 1.2 mM magnesium chloride and 1.5 mM calcium chloride) and used as crude synaptosomal fraction.
Each well of a 96-well round-bottom plate was used for the uptake reaction in a total volume of 200 μL solution containing purgurin (final concentration 10 μM) and ascorbic acid (final concentration 0.2 mg/mL).
After 10 minutes, the uptake reaction was terminated by suction filtration onto a 96-well glass fiber filter plate. The filters were rinsed with cold physi-ological saline solution, dried thoroughly, and micro scintillation 0 (Perkin-Elmer) was added thereto. Then, the residual radioactivity on the filters was measured.
The uptake value when only solvent was added was set as 100%, the uptake value when unlabeled NE (final concentration 10 μM) was added as 0% (nonspecific uptake value), and the 50% inhibitory concentration was calculated from the concentration of the test compound and its inhibitory activity.

Another data set has as its target T4, CYP2C9 (Homo sapiens, UniProt P11712).
T4 construct: a human liver microsome solution containing three CYP-specific substrates; from tissue; host or cells: human liver microsomes
Kind of data set: CYP inhibition test (1): inhibition rate (%) at one concentration, CYP2C9. It is filed as in vitro ADME. To be noted: human liver microsomes, pH 7.4, probe diclofenac (0.005 mmol/L); test compound 0.01 mmol/L, human liver microsome 0.1 mg/mL, substrate diclofenac, 37° C. 10 minutes; read-out: inhibition rate (%) 2C9. As for the experimental part:
A metabolic reaction was initiated by adding and mixing a test compound solution (final concentration 0.01 mmol/L) and a NADH/NADPH solution (final concentration 1 mmol/L) to a human liver microsome solution containing three CYP-specific substrates (final concentration 100 mmol/L potassium phosphate buffer solution (pH 7.4), 5 mmol/L magnesium chloride, 0.1 mg/mL human liver microsome, 0.005 mmol/L diclofenac (for CYP2C9), 0.01 mmol/L bufuralol (for […]), 0.005 mmol/L midazolam (for CYP3A4)). As an internal standard solution, a solution of each of stable isotopes of the metabolites (50 ng/mL [13C6] hydroxy diclofenac, 5 ng/mL [2H9] hydroxy bufuralol, and 5 ng/mL [13C6] hydroxy midazolam (all stable isotopes)) in methanol was prepared and used as a quenching solution.
Specifically, a metabolic reaction was initiated by adding and mixing 2 μL of a solution of a test compound in acetonitrile (or acetonitrile as a control) to 178 μL of a human liver microsome solution in ice water, followed by preincubation at 37° C. for 1 minute, and then adding 20 μL of a NADH/NADPH solution thereto. After incubation at 37° C. for 10 minutes, 50 μL of the reaction mixture was taken, and then it was added and mixed to 500 μL of a quenching solution to quech the reaction. The mixture was centrifuged (6130 g, 4° C., 10 minutes) and the supernatant was used as a sample for LC-MS/MS.
Peak area ratio ([peak area of metabolite]/[peak area of corresponding stable isotope]) was calculated for a metabolite and a stable isotope of the metabolite as measurement object. By comparing the peak area ratio of each test compound solution with that of the control, the inhibition rate (%) of each CYP species for each test compound was calculated from (1-[peak area ratio of each test compound solution]/[peak area ratio of control])×100.
For orientation: Liver microsomes are vesicles of endoplasmic reticulum, rich in cytochrome P450 enzymes.

T3 sequence (Q63380 1-617): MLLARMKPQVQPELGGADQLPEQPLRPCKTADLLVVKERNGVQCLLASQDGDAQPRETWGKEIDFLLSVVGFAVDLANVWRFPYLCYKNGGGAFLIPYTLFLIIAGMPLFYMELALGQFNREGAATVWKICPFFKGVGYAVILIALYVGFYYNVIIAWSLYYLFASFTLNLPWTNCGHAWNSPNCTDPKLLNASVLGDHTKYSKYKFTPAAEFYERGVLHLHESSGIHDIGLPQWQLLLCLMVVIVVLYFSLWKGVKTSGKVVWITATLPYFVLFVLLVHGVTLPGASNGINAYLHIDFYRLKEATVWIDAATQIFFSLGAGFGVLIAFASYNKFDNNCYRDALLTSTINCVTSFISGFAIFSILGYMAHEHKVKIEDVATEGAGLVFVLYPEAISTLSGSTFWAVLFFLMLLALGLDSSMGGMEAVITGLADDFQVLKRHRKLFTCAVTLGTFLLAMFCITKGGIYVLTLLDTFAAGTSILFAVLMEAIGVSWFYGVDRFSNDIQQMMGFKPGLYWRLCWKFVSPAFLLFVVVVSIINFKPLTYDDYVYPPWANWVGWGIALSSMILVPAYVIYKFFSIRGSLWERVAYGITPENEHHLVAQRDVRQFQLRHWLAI
T4 sequence (P11712 whole entry): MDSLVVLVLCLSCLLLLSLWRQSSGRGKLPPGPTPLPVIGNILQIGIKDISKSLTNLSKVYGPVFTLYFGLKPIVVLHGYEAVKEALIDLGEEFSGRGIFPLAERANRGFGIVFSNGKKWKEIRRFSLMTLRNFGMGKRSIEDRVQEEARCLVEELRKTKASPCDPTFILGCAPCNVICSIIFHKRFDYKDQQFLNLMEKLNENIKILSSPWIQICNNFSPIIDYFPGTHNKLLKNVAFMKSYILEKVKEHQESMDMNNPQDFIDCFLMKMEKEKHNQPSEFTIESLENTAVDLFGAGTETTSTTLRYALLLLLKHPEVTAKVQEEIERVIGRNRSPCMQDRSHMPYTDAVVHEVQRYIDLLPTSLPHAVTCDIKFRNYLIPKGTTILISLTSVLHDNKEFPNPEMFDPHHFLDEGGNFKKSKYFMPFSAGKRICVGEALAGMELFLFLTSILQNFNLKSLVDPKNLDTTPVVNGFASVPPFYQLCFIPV
T2 sequence (P23977 whole entry): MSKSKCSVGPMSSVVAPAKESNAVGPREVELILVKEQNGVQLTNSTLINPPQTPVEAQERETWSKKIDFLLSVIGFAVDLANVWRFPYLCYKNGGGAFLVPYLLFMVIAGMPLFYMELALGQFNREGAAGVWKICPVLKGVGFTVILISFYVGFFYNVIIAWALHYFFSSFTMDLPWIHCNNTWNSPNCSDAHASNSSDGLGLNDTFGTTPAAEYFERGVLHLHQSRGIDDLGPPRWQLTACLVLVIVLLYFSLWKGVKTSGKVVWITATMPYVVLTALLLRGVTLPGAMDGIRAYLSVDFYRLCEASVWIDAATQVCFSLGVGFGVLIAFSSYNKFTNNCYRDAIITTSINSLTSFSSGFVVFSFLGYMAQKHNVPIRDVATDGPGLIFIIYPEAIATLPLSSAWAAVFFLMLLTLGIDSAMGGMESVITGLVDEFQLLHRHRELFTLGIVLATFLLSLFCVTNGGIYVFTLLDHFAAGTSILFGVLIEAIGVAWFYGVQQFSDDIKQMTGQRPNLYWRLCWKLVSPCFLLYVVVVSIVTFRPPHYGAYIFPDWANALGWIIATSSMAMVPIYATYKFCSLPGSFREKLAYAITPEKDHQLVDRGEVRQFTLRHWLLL
T1 sequence (P31652 whole entry): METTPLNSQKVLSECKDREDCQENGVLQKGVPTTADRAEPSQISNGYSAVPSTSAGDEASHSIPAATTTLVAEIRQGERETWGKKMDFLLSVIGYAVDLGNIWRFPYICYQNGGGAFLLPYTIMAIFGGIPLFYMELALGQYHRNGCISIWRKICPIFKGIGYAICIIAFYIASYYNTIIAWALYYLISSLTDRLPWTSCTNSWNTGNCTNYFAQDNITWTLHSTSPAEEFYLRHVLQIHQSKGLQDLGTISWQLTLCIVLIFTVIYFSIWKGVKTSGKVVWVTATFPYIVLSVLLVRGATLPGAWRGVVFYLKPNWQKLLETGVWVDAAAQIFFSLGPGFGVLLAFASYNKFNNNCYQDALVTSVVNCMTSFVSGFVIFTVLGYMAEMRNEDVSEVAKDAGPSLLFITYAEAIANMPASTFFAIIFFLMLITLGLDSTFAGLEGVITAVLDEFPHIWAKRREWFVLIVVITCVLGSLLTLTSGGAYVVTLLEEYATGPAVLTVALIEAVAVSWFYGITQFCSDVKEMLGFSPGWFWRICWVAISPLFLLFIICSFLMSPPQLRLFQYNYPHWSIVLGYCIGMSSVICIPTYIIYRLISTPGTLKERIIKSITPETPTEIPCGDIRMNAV

Broadly, the IC50 is the concentration that inhibits the measured activity by half. One may read the inhibition as the relative decrease from the control value, in per cent. For `OCCOc1c(F)cc(N2CC3(CCC3)N[C@H]3CCCC[C@@H]32)cc1Cl` [Example 6], the values for the IC50 (on serotonin (5-HT) uptake; on dopamine (DA) uptake; in data set [1]) were 6.1 nM, 5.8 nM and 8.4 nM, respectively. Also, on CYP2C9, the inhibition at 10 min, 0.01 mmol/L is -6.4%.

Turning to `OCCOc1ccc(N2CC3(CCC3)N[C@H]3CCCC[C@@H]32)cc1` [Example 8], the results for the IC50 (on serotonin (5-HT) uptake; at dopamine (DA) uptake; in data set [1]) were 10 nM, 49.5 nM and 37.2 nM, respectively. Moreover, at CYP2C9, the inhibition at 10 min, 0.01 mmol/L came out at 8.1%.

On to `COc1cc(N2CC3(CCC3)N[C@H]3CCCC[C@@H]32)ccc1OCCO` [Example 11], for which the 50% inhibitory concentration (IC50) on serotonin (5-HT) uptake came out at 39.6 nM; on dopamine (DA) uptake, 97.9 nM; in data set [1] it was 91 nM. Further, the inhibition at 10 min, 0.01 mmol/L on CYP2C9 is 7.5%.

With `Cc1cc(N2CC3(CCC3)N[C@H]3CCCC[C@@H]32)cc(F)c1OCCO` [Example 14], the IC50 on serotonin (5-HT) uptake came out at 5.8 nM; on dopamine (DA) uptake, 5.5 nM; in data set [1] it was 8.5 nM. On CYP2C9, the inhibition at 10 min, 0.01 mmol/L was determined as 13.6%.

Consider `C[C@@H]1CN(c2cc(F)c(OCCO)c(Cl)c2)[C@H]2CCCC[C@@H]2N1` [Example 17, 2-(2-chloro-6-fluoro-4-((3R,4aS,8aS)-3-methyloctahydroquinoxalin-1(2H)-yl)phenoxy)ethan-1-ol 1/2fumarate], for which the IC50 was found to be 7.3 nM at serotonin (5-HT) uptake, 7.6 nM at dopamine (DA) uptake and 2.7 nM in data set [1].

`C[C@H]1CN(c2cc(F)c(OCCO)c(Cl)c2)[C@H]2CCCC[C@H]2N1` [Example 18]: the IC50 turned out to be 73.1 nM at serotonin (5-HT) uptake, 42.9 nM at dopamine (DA) uptake and 13.3 nM in data set [1].

`C[C@@H]1CN(c2ccc(OC(F)(F)CO)c(Cl)c2)[C@H]2CCCC[C@@H]2N1` [Example 19]: the IC50 at serotonin (5-HT) uptake stood at 62.7 nM; at dopamine (DA) uptake it was 47.4 nM; in data set [1], 2.4 nM. Also, the inhibition at 10 min, 0.01 mmol/L at CYP2C9 was 5.8%.

Turning to `CC1(C)CN(c2ccc(OC(F)(F)CO)cc2)[C@H]2CCCC[C@@H]2N1` [Example 20, 2-(4-((4aS,8aS)-3,3-dimethyloctahydroquinoxalin-1(2H)-yl)phenoxy)-2,2-difluoroethan-1-ol], the results for the IC50 (at serotonin (5-HT) uptake; on dopamine (DA) uptake; in data set [1]) were 4.7 nM, 90.9 nM and 4.4 nM, respectively.

With `CC1(C)CN(c2ccc(OC(F)(F)CO)cc2)[C@@H]2CCCC[C@H]2N1` [Example 21], the IC50 is 89.9 nM on serotonin (5-HT) uptake, 199 nM on dopamine (DA) uptake and 69 nM in data set [1].

Turning to `COc1cc(N2CC(C)(C)N[C@H]3CCCC[C@@H]32)ccc1OC(F)(F)CO` [Example 26], the concentration for half-maximal inhibition (IC50) is 18.1 nM at serotonin (5-HT) uptake, 213 nM at dopamine (DA) uptake and 21.3 nM in data set [1].

Regarding `CC1(C)CN(c2ccc(OCCO)c(Cl)c2)[C@H]2CCCC[C@@H]2N1` [Example 27, 2-(2-chloro-4-((4aS,8aS)-3,3-dimethyloctahydroquinoxalin-1(2H)-yl)phenoxy)ethan-1-ol], the IC50 on serotonin (5-HT) uptake was determined as 7.6 nM; at dopamine (DA) uptake, 99 nM; in data set [1], 7.7 nM.

`CC1(C)CN(c2ccc(OCCO)c(Cl)c2)[C@@H]2CCCC[C@H]2N1` [Example 28]: the IC50 on serotonin (5-HT) uptake was 55.1 nM; at dopamine (DA) uptake, 76.5 nM; in data set [1], 9.7 nM.

Take `Cc1cc(N2CC(C)(C)N[C@H]3CCCC[C@@H]32)ccc1OC(F)(F)CO` [Example 31]: the figures for the IC50 (at serotonin (5-HT) uptake; on dopamine (DA) uptake; in data set [1]) were 26.6 nM, 56.4 nM and 5.5 nM, respectively.

For `Cc1cc(N2CC(C)(C)N[C@@H]3CCCC[C@H]32)ccc1OC(F)(F)CO` [Example 32], the IC50 at serotonin (5-HT) uptake was determined as 98.3 nM; at dopamine (DA) uptake, 60.7 nM; in data set [1], 7.5 nM.

As for `CC1(C)CN(c2cc(F)c(OCCO)c(F)c2)[C@H]2CCCC[C@@H]2N1` [Example 34, 2-(4-((4aS,8aS)-3,3-dimethyloctahydroquinoxalin-1(2H)-yl)-2,6-difluorophenoxy)ethan-1-ol], the concentration for half-maximal inhibition (IC50) at serotonin (5-HT) uptake is 8.9 nM; at dopamine (DA) uptake it was 73.2 nM; in data set [1] it was 5.9 nM.

With `CC1(C)CN(c2cc(F)c(OCCO)c(F)c2)[C@@H]2CCCC[C@H]2N1` [Example 35], the IC50 on serotonin (5-HT) uptake is 71 nM; at dopamine (DA) uptake, 59.7 nM; in data set [1], 6.8 nM.

As for `CC1(C)CN(c2cc(F)c(OCCO)c(F)c2)[C@H]2CCCC[C@H]2N1` [Example 36], the half-inhibitory concentration (IC50) at serotonin (5-HT) uptake amounted to 60.1 nM; on dopamine (DA) uptake, 25.6 nM; in data set [1], 5.1 nM.

In the case of `CN1[C@H]2CCCC[C@@H]2N(c2ccc(OC(F)(F)CO)cc2)CC1(C)C` [Example 37, 2,2-difluoro-2-(4-((4aS,8aS)-3,3,4-trimethyloctahydroquinoxalin-1(2H)-yl)phenoxy)ethan-1-ol], the values for the IC50 (at serotonin (5-HT) uptake; at dopamine (DA) uptake; in data set [1]) were 87.4 nM, 81.9 nM and 34.5 nM, respectively.

As to `CC1(C)CN(c2ccc(OCCO)c(Cl)c2)[C@H]2CCCC[C@H]2N1` [Example 44, 2-(2-chloro-4-((4aR,8aS)-3,3-dimethyloctahydroquinoxalin-1(2H)-yl)phenoxy)ethan-1-ol 1/2fumarate], the IC50 stood at 15.3 nM at serotonin (5-HT) uptake, 37.5 nM on dopamine (DA) uptake and 5.2 nM in data set [1]. Besides, on CYP2C9, the inhibition at 10 min, 0.01 mmol/L was -11.4%.

Take `Cc1cc(N2CC(C)(C)N[C@@H]3CCCC[C@@H]32)ccc1OC(F)(F)CO` [Example 48]: the IC50 at serotonin (5-HT) uptake came to 57.4 nM; at dopamine (DA) uptake, 68.6 nM; in data set [1], 6.6 nM. Moreover, the inhibition at 10 min, 0.01 mmol/L on CYP2C9 was -0.7%.
